# Data from ChEMBL document CHEMBL5338738, “Discovery of Novel Sesquiterpene Lactone Derivatives as Potent PKM2 Activators for the Treatment of Ulcerative Colitis” (J Med Chem, 2023).
# The source made the active and inactive calls. No cut-off for these calls is given here.
# How the values were obtained:
# T-cell = assay: Immunomodulatory activity in C57BL/6 mouse mesenteric lymph node T cells assessed as inhibition of concanavalin A stimulated T-cell proliferation incubated for 68 hrs by CCK-8 assay; type: functional, cell-based; conditions: C57BL/6, T-cell
# Pyruvate kinase PKM [1] = molecular target: T1, Pyruvate kinase PKM (Homo sapiens, UniProt P14618); assay: Activation of PKM2 (unknown origin) at 3 uM incubated for 30 mins relative to control
# Target sequence in this assay (P14618 2-531 limits assumed): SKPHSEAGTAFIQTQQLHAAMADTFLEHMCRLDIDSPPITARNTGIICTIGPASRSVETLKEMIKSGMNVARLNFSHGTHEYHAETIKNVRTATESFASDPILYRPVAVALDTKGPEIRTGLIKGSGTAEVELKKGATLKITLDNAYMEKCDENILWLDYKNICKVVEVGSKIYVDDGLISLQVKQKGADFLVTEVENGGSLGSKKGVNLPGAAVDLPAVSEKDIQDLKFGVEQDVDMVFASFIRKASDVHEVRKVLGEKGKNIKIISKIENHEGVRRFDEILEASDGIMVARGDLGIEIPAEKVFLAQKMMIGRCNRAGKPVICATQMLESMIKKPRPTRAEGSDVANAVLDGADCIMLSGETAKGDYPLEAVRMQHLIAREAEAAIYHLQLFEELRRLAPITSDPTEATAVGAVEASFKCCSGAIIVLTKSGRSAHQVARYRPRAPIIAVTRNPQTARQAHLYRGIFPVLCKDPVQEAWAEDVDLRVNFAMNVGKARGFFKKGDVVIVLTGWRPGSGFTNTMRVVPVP
# Pyruvate kinase PKM [2] = molecular target: T1, Pyruvate kinase PKM; assay: Activation of PKM2 (unknown origin) incubated for 30 mins
# Target sequence in this assay (P14618 whole entry): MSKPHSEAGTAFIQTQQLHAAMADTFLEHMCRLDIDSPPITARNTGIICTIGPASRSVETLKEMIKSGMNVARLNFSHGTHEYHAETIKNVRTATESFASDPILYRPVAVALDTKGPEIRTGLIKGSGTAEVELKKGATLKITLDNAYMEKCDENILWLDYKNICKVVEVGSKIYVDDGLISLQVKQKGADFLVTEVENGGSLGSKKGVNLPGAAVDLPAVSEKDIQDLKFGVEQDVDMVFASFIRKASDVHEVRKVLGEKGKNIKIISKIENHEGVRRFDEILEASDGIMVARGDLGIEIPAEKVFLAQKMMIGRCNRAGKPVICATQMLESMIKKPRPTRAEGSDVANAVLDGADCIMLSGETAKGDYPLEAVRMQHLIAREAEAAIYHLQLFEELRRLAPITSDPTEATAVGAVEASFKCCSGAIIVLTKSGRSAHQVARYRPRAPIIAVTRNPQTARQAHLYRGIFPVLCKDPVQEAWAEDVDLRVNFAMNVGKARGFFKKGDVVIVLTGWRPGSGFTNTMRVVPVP
Activity (Pyruvate kinase PKM [1]),EC50 (Pyruvate kinase PKM [2]),SMILES,IC50 (T-cell)
inactive,,C=C1C(=O)O[C@@H]2[C@H]3C(C)=CC[C@@H](O)[C@]3(C)CC[C@@H]12 [SANTAMARIN],5560 nM
,,C=C1C(=O)O[C@@H]2/C=C(\C)CC/C=C(/C(=O)OC)CC[C@@H]12,850 nM
,1510 nM,C=C1C(=O)O[C@@H]2/C=C(\C)CC/C=C(\C)CC[C@@H]12 [COSTUNOLIDE],2570 nM
inactive,,C=C1C(=O)O[C@@H]2/C=C(\C)CC/C=C(/C=O)CC[C@@H]12,25900 nM
inactive,,C/C1=C\[C@H]2OC(=O)[C@@H](C)[C@@H]2CC/C(C)=C/CC1 [DIHYDRO COSTUNOLIDE],15000 nM
inactive,,C=C1C(=O)O[C@@H]2/C=C(\C)CC/C=C(/CCl)CC[C@@H]12,15200 nM
,,C=C1C(=O)O[C@@H]2/C=C(\C)CC[C@H]3C(F)(F)[C@@]3(C)CC[C@@H]12,1230 nM
inactive,,C=C1C(=O)O[C@H]2[C@H]1CC[C@]1(C)O[C@@H]1CC[C@@]1(C)O[C@@H]21,10600 nM
inactive,,C=C1C(=O)O[C@@H]2/C=C(\C)CC/C=C(/CBr)CC[C@@H]12,11800 nM
,,C=C1C(=O)O[C@@H]2C[C@@H](C)CC[C@H]3O[C@@]3(C)CC[C@@H]12,1970 nM
,,C=C1C(=O)O[C@H]2[C@H]1CC[C@@H](C)CCC[C@@]1(C)O[C@@H]21,1420 nM
,,C=C1C(=O)O[C@@H]2/C=C(\C)CC/C=C(/CO)CC[C@@H]12,720 nM
,,C=C1C(=O)O[C@@H]2/C=C(\C)CC/C=C(/C(=O)OCC)CC[C@@H]12,1030 nM
inactive,,C=C1CC[C@@H](O)[C@]2(C)CC[C@H]3C(=C)C(=O)O[C@@H]3[C@@H]12 [REYNOSIN],6200 nM
,,C=C1C(=O)O[C@@H]2/C=C(\C)CC/C=C(/CF)CC[C@@H]12,1520 nM
inactive,,C/C1=C\[C@H]2OC(=O)/C(=C\c3ccccc3)[C@@H]2CC/C(C)=C/CC1,16100 nM
inactive,,C=C1C(=O)O[C@@H]2C3=C(C)CC[C@@H](O)[C@]3(C)CC[C@@H]12,6170 nM
,,C=C1C(=O)O[C@@H]2/C=C(\C)CC/C=C(/C(F)F)CC[C@@H]12,1210 nM
inactive,,C=C1C(=O)O[C@@H]2/C=C(\C)CC/C=C(/C(=O)O)CC[C@@H]12,10200 nM
,,C=C1C(=O)O[C@@H]2/C=C(\C)CC/C=C(/COC(=O)[C@@H](N)C(C)C)CC[C@@H]12,880 nM
,,C=C1C(=O)O[C@@H]2/C=C(\C)CC[C@H]3O[C@@]3(C)CC[C@@H]12,2630 nM
,,C=C1C(=O)O[C@@H]2/C=C(\C)CC/C=C(/COC(=O)[C@@H](NC(=O)[C@@H](N)[C@@H](C)CC)C(C)C)CC[C@@H]12,1010 nM
,,C=C1C(=O)O[C@@H]2/C=C(\C)CCC[C@H](C)CC[C@@H]12,2890 nM
